Series [1] deals with differentiated SH-SY5Y human neuroblastoma cells. In words: LDH assay, neuroprotective effects against Aβ1-42 cytotoxicity. In kind it is cell-based. To be noted: with 20 µM Aβ1-42, 24 h. The protocol:
Cell cultures and differentiation: SH-SY5Y cell line were growth in DMEM:F12 (1:1) media including 10% FBS and 1% penicillin/streptomycin at 37 °C and 5% CO2 until cells reach confluence. Then, cells harvested via using trypsin/EDTA solution and transferred to 48 well plates. For differentiation, media were changed to supplemented media with 10 µg/mL retinoic acid and incubated for 5 days. Finally, media were changed into serum free media supplementing with both 10 µM retinoic acid and 25 ng/mL BDNF.
Cytotechnol. 2015; 67:299-309.
Control cells (n = 6) were cultured under normal conditions. 1% Triton X, ascorbic acid (10 µM) and hydrogen peroxide (H2O2, 25 µM) were used as positive controls for cell viability, TAC and TOS analysis, respectively.
The cultures without BLA, MEM, or LA were studied as negative control group. 1% Triton-X was added to the culture media to provide negative control group.

Series [2] relates to differentiated SH-SY5Y cells. In words: Apoptosis detection by Hoechst 33258 staining. In kind it is cell-based, human. To be noted: 25 and 50 µM co-treatment, 20 µM Aβ1-42, 24 h. How it is done:
Apoptosis detection by Hoechst 33258 staining: Hoechst 33258 staining was used to detect apoptotic nuclei. […] Then, cells fixed with 4% paraformaldehyde in phosphate buffered saline at 4 °C for 30 min. After washing cells with PBS, the nuclear DNAs were incubated with […] Hoechst 33258 fluorescent dye for 5 min at room temperature. Cells were observed and photographed under a fluorescence microscopy (Leica® DM IL LED).

The test system of a further series is human neuron-like cells. In words: Apoptosis-Necrosis assay (Annexin V-FITC/PI flow cytometry). In kind it is cell-based. To be noted: concentration not given. The protocol:
Apoptosis-Necrosis assay: the frequencies of viable, apoptotic and necrotic cells were detected with the Annexin V-FITC apoptosis detection Kit I (BD Pharmingen, USA). Briefly, 5 x 10^4 cells were collected by centrifugation and cells resuspended in 500 µL of 1X binding buffer. Then, 5 µL of Annexin V-FITC and 5 µl of propidium iodide (PI 50 µg/ml) were added to the cultures and incubated 5 min in the dark. After that, cells fixed with 4% paraformaldehyde in phosphate buffered saline at 4 °C for 30 min. Cells from each well were stained according to the manufacturer's instructions and analyzed using a flow cytometer (CyFlow Cube 6, Partec, Germany). A computer system was used for data acquisition and analysis. Four different populations of cells are detected with the Annexin V-FITC kit: viable cells that are annexin negative and PI negative and express no fluorescence, early apoptotic cells that are annexin positive and PI negative and that express green fluorescence, late apoptotic/necrotic cells that are annexin positive and PI positive and that express green and orange fluorescence, necrotic cells that are annexin negative and PI positive and that express orange fluorescence (Majstorovic I, Vucevic D, Pavlovic B, Vasilijic S, Colic M. An anti-DEC-205 monoclonal antibody stimulates binding of thymocytes to rat thymic dendritic cells and promotes apoptosis of thymocytes. Cent Eur J Immunol. 2014; 39:411-418) .
BLA was considered as more able to protect the human neuron-like cells from Aβ1-42-induced necrosis and late apoptosis than LA or MEM.
In general terms: Flow cytometry measures light scatter and fluorescence of single cells or particles in a stream.

Series [3] has as its system cultured human blood cells. In words: Nucleic acid oxidation, 8-hydroxy-2'-deoxyguanosine assay. In kind it is cell-based. An excerpt: All volunteers have signed informed consent.
Nucleic acid oxidation: 8-hydroxy-2'-deoxyguanosine assay kits (Cayman Chemical®) was used for determining 8- OH-dG levels in the cultures. It is a competitive assay that can be used for the quantification of 8-OHdG in homogenates and recognizes both free 8-OHdG and DNA-incorporated 8-OH-dG. This assay depends on the competition between 8-OH-dG and 8-OH-dGacetylcholinesterase (AChE) conjugate for a limited amount of 8-OH-dG monoclonal antibody (Abdel-Wahab BA, Metwally ME. Ginkgo biloba enhances the anticonvulsant and neuroprotective effects of sodium valproate against kainic acid-induced seizures in mice. J Pharmacol Toxicol. 2011; 6:679-690). All procedures were carried out in accordance with the provider's manual.
The levels of 8-OH-dG, a sensitive marker of oxidative DNA damage, were quantified about mitomycin (MMC) treatment. […] On the contrary, 8-OH-dG levels were not increased in the blood cells that were treated with BLA, MEM, and LA concentrations.

For series [4], the system named is platelet aggregation induced by collagen. In words: Optical aggregometry in platelet-rich plasma, aggregation induced by collagen. In kind it is cell-based, human. To be noted: Collagen (10 µg/mL). The protocol:
(§1) Blood Collection and Preparation of Platelet-Rich Plasma: blood was collected from healthy and non-smoking volunteers (all volunteers have signed informed consent) into a polypropylene tube containing 0.105 M buffered sodium citrate. None of the donors had received any medication known to affect platelet function for at least 10 days before blood collection. Platelet-rich plasma (PRP) was collected by the centrifugation of whole blood at 150 g for 15 min at room temperature. Subsequently, platelet-poor plasma (PPP) was collected by the centrifugation at 2000 g for 20 min at room temperature. The platelet count was adjusted to 2x10^8 cells /ml with PPP.
(§2) Incubation of PRP with BLA and LA: PRP was incubated with BLA and LA (25, 50, and 100 µM) for 15 minutes at 37 °C. PRP without any compound was used as a control.
(§3) Optical Aggregometry in Platelet-Rich Plasma: the measurement of platelet aggregation in PRP was performed using four-channel aggregometer (APACT 4004; LABiTec, Ahrensburg, Germany). After the incubation of PRP with three different compounds, platelet aggregation was stimulated by ADP (20 µM) and Collagen (10 µg/mL) and percentage of aggregation was monitored for 10 minutes. The percentage of aggregation, slope and shape change parameters were monitored for 10 minutes. Assay was started 1 hour after blood was collected and finished within 3 hours (Hao HZ, He AD, Wang DC, Yin Z, Zhou YJ, Liu G, Liang ML, Da XW, Yao GQ, Xie W, Xiang JZ, Ming ZY. Antiplatelet activity of loureirin A by attenuating Akt phosphorylation: In vitro studies. Eur. J. Pharmacol. 2015; 746:63-9).

Series [5] deals with platelet aggregation induced by ADP. Description: Optical aggregometry in platelet-rich plasma, aggregation induced by ADP. To be noted: ADP (20 µM). In kind it is cell-based, human. How it is done:
as §1, §2, §3

Marks after values point to notes of the source that are not given here.

On to `CC1(C)C2CC3OB(CNC(=O)CCCC[C@H]4CCSS4)O[C@]3(C)C1C2` (stereo partly drawn) [BLA, 5-((S)-1,2-dithiolan-3-yl)-N-(((3aR)-3a,5,5-trimethylhexahydro-4,6-methanobenzo[d][1,3,2]dioxaborol-2-yl)methyl)pentanamide], for which the “increase in the cell viability (inhibited LDH release)” value in series [1] (25 µM) is 62.91%; in series [1] (50 µM) it was 67.37%; in series [1] (100 µM) it was 70.65%. Further, in series [2], the “nuclear integrity and apoptosis by Aβ1-42 (Hoechst 33258)” value is “protected nuclear integrity and inhibited apoptosis”. For the same compound, the “decreased the necrotic cell percentage by Aβ1-42” value in the series with human neuron-like cells stood at 68.38%. Further, in series [3], the 8-OH-dG levels entry is given as “not increased”. The “Max. Aggregation (%)” value is reported as 45.7* % in series [4] (25 µM); 31.8* % in series [4] (50 µM); 7.9* % in series [4] (100 µM); 49,8* % in series [5] (25 µM); 41.3* % in series [5] (50 µM); 32.2* % in series [5] (100 µM). Further, the “Shape change (%)” value in series [4] (25 µM) is on record as 24.7* %; in series [4] (50 µM) it was 10.2* %; in series [4] (100 µM), 5.6* %; in series [5] (25 µM) it was 12.1* %; in series [5] (50 µM) it was 10.3* %; in series [5] (100 µM), 6.8* %. Moreover, the “Slope (%)” value in series [4] (25 µM) was 41.4* %; in series [4] (50 µM) it was 30.8* %; in series [4] (100 µM) it was 25.5* %; in series [5] (25 µM), 66.7* %; in series [5] (50 µM), 51.5* %; in series [5] (100 µM), 47.3* %.

Take `O=C(O)CCCCC1CCSS1` (stereo not drawn) [LA, 1,2-dithiolane-3-pentanoic acid]: the “increase in the cell viability (inhibited LDH release)” value was determined as 53.05% in series [1] (25 µM), 58.68% in series [1] (50 µM) and 59.86% in series [1] (100 µM). In addition, the “nuclear integrity and apoptosis by Aβ1-42 (Hoechst 33258)” value in series [2] was “protected nuclear integrity and inhibited apoptosis”. Moreover, the “decreased the necrotic cell percentage by Aβ1-42” value in the series on human neuron-like cells amounted to 61.67%. Besides, in series [3], the 8-OH-dG levels entry is “not increased”. Besides, the “Max. Aggregation (%)” value is 47.9* % in series [4] (25 µM); 41.6* % in series [4] (50 µM); 35.8* % in series [4] (100 µM); 55.8* % in series [5] (25 µM); 47.8* % in series [5] (50 µM); 44.6* % in series [5] (100 µM). Moreover, the “Shape change (%)” value in series [4] (25 µM) is 27.9* %; in series [4] (50 µM), 23.4* %; in series [4] (100 µM), 20.8* %; in series [5] (25 µM) it was 17.4* %; in series [5] (50 µM), 14.5* %; in series [5] (100 µM), 13.8* %. The “Slope (%)” value in series [4] (25 µM) was 43.6* %; in series [4] (50 µM) it was 37.2* %; in series [4] (100 µM) it was 31,4* %; in series [5] (25 µM), 69.8* %; in series [5] (50 µM), 61.4* %; in series [5] (100 µM), 58.0* %.

Values taken from patent EP3495372B1 (priority 2017, dated 2019).
